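1) Cells in 96-well plates. 2) Compound, 48 h, 5 concentrations. 3) Linear interpolation between surrounding doses. 4) Unreached endpoint = highest concentration. GI50: concentration for 50% inhibition of growth.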 Active and inactive are the calls of the source. Rule as the data show it: active = GI50 up to about 1.1 µM and inactive = higher.
Assays:
Assay in all cases: NCI anticancer screen, dose series, 48 h
786-0 = test system: 786-0
CCRF-CEM = test system: CCRF-CEM
DLD-1 = test system: DLD-1
EKVX = test system: EKVX
HCC 2998 = test system: HCC 2998
HOP-62 = test system: HOP-62
IGROV-1 = test system: IGROV-1
M14 = test system: M14
NCI-H226 = test system: NCI-H226
NCI-H460 = test system: NCI-H460
OVCAR-4 = test system: OVCAR-4
OVCAR-8 = test system: OVCAR-8
SNB-75 = test system: SNB-75
TK-10 = test system: TK-10
UACC-62 = test system: UACC-62
HCT-15 = test system: HCT-15
MOLT-4 = test system: MOLT-4

| SMILES | GI50 (786-0) | GI50 (CCRF-CEM) | GI50 (DLD-1) | GI50 (EKVX) | GI50 (HCC 2998) | GI50 (HOP-62) | GI50 (IGROV-1) | GI50 (M14) | GI50 (NCI-H226) | GI50 (NCI-H460) | GI50 (OVCAR-4) | GI50 (OVCAR-8) | GI50 (SNB-75) | GI50 (TK-10) | GI50 (UACC-62) | GI50 (HCT-15) [µM] | GI50 (MOLT-4) |
| --- | --- | --- | --- | --- | --- | --- | --- | --- | --- | --- | --- | --- | --- | --- | --- | --- | --- |
| CCOc1ccc(OCC)c([P+](c2ccccc2)(c2ccccc2)c2ccccc2)c1 | 0.879 µM (active) | 0.322 µM (active) | 0.548 µM (active) | 1.1 µM (active) | 0.305 µM (active) | 1.07 µM (active) | 0.356 µM (active) | 0.71 µM (active) | 0.406 µM (active) | 0.383 µM (active) | 1.19 µM (inactive) | 0.358 µM (active) | 1.09 µM (active) | 0.495 µM (active) | 0.792 µM (active) |  |  |
| COC(=O)N/N=C(\C)c1sc(-c2nc(C)c(/C(C)=N/NC(=O)OC)s2)nc1C | > 100 µM (inactive) | 79.6 µM (inactive) | > 100 µM (inactive) | > 100 µM (inactive) | > 100 µM (inactive) | > 100 µM (inactive) | > 100 µM (inactive) | > 100 µM (inactive) | > 100 µM (inactive) | > 100 µM (inactive) | > 100 µM (inactive) | > 100 µM (inactive) | > 100 µM (inactive) | > 100 µM (inactive) | > 100 µM (inactive) | > 100 | > 100 µM (inactive) |
| C/C(=N\Nc1nnc(S)n1N)c1c(O)cc(C)oc1=O | > 100 µM (inactive) | > 100 µM (inactive) | > 100 µM (inactive) | > 100 µM (inactive) | > 100 µM (inactive) | > 100 µM (inactive) |  | > 100 µM (inactive) | > 100 µM (inactive) | > 100 µM (inactive) | 99.3 µM (inactive) | > 100 µM (inactive) | > 100 µM (inactive) | > 100 µM (inactive) | > 100 µM (inactive) | > 100 | > 100 µM (inactive) |
| C=C1CCC2C(C)(CO)C(O)CCC2(C)C1CC(O)/C(=C/CO)C(=O)O (stereo unspecified) | > 100 µM (inactive) | > 100 µM (inactive) | > 100 µM (inactive) |  | > 100 µM (inactive) | > 100 µM (inactive) | > 100 µM (inactive) | > 100 µM (inactive) |  | > 100 µM (inactive) | > 100 µM (inactive) | > 100 µM (inactive) | > 100 µM (inactive) | > 100 µM (inactive) | > 100 µM (inactive) | > 100 | > 100 µM (inactive) |
| C/C=C/CC(S(=O)(=O)c1ccccc1)S(=O)(=O)c1ccccc1 |  | 87.1 µM (inactive) | > 100 µM (inactive) | > 100 µM (inactive) | > 100 µM (inactive) | 85.5 µM (inactive) | > 100 µM (inactive) | > 100 µM (inactive) | > 100 µM (inactive) | > 100 µM (inactive) | > 100 µM (inactive) | > 100 µM (inactive) | 32.7 µM (inactive) | > 100 µM (inactive) | 36.1 µM (inactive) | 60 | > 100 µM (inactive) |
| NC(=O)c1ncn(CCN2CCN(C(=O)NCCCCCCNC(=O)N3CCN(CCn4cnc(C(N)=O)c4N)CC3)CC2)c1N | > 100 µM (inactive) | > 100 µM (inactive) | > 100 µM (inactive) | > 100 µM (inactive) | > 100 µM (inactive) | > 100 µM (inactive) | > 100 µM (inactive) | > 100 µM (inactive) | > 100 µM (inactive) | > 100 µM (inactive) | > 100 µM (inactive) | > 100 µM (inactive) | > 100 µM (inactive) | > 100 µM (inactive) | > 100 µM (inactive) | > 100 | > 100 µM (inactive) |
| CC12O[Te]34OC1(C)C(C)(O3)C2(C)O4 | 15.3 µM (inactive) |  | 15.3 µM (inactive) | 20.1 µM (inactive) | 0.016 µM (active) | 20.4 µM (inactive) | 11.9 µM (inactive) | 16.5 µM (inactive) | 16.9 µM (inactive) | 15.3 µM (inactive) | 14.6 µM (inactive) | 12.5 µM (inactive) | > 8.75 µM (inactive) | 17 µM (inactive) | 30.1 µM (inactive) | 17.4 | 6.47 µM (inactive) |
| O=C1C(=O)N(c2ccc(Cl)c(Cl)c2)C(=O)C(=O)C1c1nc2ccccc2s1 | > 100 µM (inactive) | 38.2 µM (inactive) | > 100 µM (inactive) | > 100 µM (inactive) | > 100 µM (inactive) | > 100 µM (inactive) | > 100 µM (inactive) | > 100 µM (inactive) | 88.7 µM (inactive) |  | > 100 µM (inactive) | 56.5 µM (inactive) | > 100 µM (inactive) | > 100 µM (inactive) | > 100 µM (inactive) | 87.1 | > 100 µM (inactive) |
| CN(/N=N/c1[nH]cnc1C(N)=O)C1CCCCC1 |  | 55.2 µM (inactive) | > 100 µM (inactive) | > 100 µM (inactive) | > 100 µM (inactive) | > 100 µM (inactive) | > 100 µM (inactive) | 72.9 µM (inactive) | > 100 µM (inactive) | > 100 µM (inactive) | 55.1 µM (inactive) | 36.9 µM (inactive) | 34.6 µM (inactive) | 40 µM (inactive) | 61.7 µM (inactive) | > 100 | 49.1 µM (inactive) |
| O=C(CC1(O)C(=O)Nc2c(Cl)cccc21)c1ccccc1 (stereo unspecified) | > 100 µM (inactive) | > 100 µM (inactive) | > 100 µM (inactive) | > 100 µM (inactive) | > 100 µM (inactive) | > 100 µM (inactive) |  | > 100 µM (inactive) | > 100 µM (inactive) | > 100 µM (inactive) | 60 µM (inactive) | > 100 µM (inactive) | 85.9 µM (inactive) | > 100 µM (inactive) |  | > 100 | > 100 µM (inactive) |
| CC1=NN2C(c3ccc([N+](=O)[O-])cc3)=CSC2=NC(C)(C)C1 | > 100 µM (inactive) | > 100 µM (inactive) | > 100 µM (inactive) | > 100 µM (inactive) | > 100 µM (inactive) | > 100 µM (inactive) | > 100 µM (inactive) | > 100 µM (inactive) | > 100 µM (inactive) | > 100 µM (inactive) | > 100 µM (inactive) | > 100 µM (inactive) | > 100 µM (inactive) | > 100 µM (inactive) | > 100 µM (inactive) | > 100 | > 100 µM (inactive) |
| CCC1=C(C)/C(=C/c2[nH]c(CBr)c(CC)c2C)N=C1CBr | 17 µM (inactive) | 2.51 µM (inactive) | 12.4 µM (inactive) | 21.7 µM (inactive) | 12.2 µM (inactive) | 15 µM (inactive) | 18.5 µM (inactive) | 16.5 µM (inactive) |  | 19 µM (inactive) | 13 µM (inactive) | 7.23 µM (inactive) | 29.6 µM (inactive) | 18.4 µM (inactive) | 6.05 µM (inactive) | 8.71 | 5.81 µM (inactive) |
| CCOC(=O)C(Sc1ccccc1)c1c(OC)cc(=O)oc1/C=[N+](/[O-])c1ccc(N(C)C)cc1 (stereo unspecified) | 19.7 µM (inactive) | 4.52 µM (inactive) | 28.1 µM (inactive) | 33.3 µM (inactive) | 23.9 µM (inactive) | 66.4 µM (inactive) | 42.4 µM (inactive) | 16.2 µM (inactive) |  | 27.9 µM (inactive) | 26.7 µM (inactive) | 18.4 µM (inactive) | 31.3 µM (inactive) | 35 µM (inactive) | 22.6 µM (inactive) | 15.4 | 13.8 µM (inactive) |
| CN(C)CC1CCC/C1=N/OC(=O)c1ccccc1 (stereo unspecified) | > 100 µM (inactive) | > 100 µM (inactive) | > 100 µM (inactive) |  | > 100 µM (inactive) | > 100 µM (inactive) | > 100 µM (inactive) | > 100 µM (inactive) | > 100 µM (inactive) | > 100 µM (inactive) | > 100 µM (inactive) | > 100 µM (inactive) | > 100 µM (inactive) | > 100 µM (inactive) | > 100 µM (inactive) | > 100 | > 100 µM (inactive) |
| CC1=C(C(=O)Nc2ccccc2)C(c2ccccc2Cl)C(C(=O)Nc2ccccc2)=C(C)N1 | 19.6 µM (inactive) | 32 µM (inactive) | 35.9 µM (inactive) | 14.3 µM (inactive) | 21.2 µM (inactive) | 20.1 µM (inactive) | 27.9 µM (inactive) | 16.6 µM (inactive) | 22.2 µM (inactive) |  | 36.4 µM (inactive) | 29.4 µM (inactive) | 28.1 µM (inactive) | 38.7 µM (inactive) | 13.6 µM (inactive) | 20 | 17.4 µM (inactive) |
| CCc1ccccc1NC(=O)C1=C(C)NC(C)=C(C(=O)Nc2ccccc2CC)C1c1ccccc1Cl | > 100 µM (inactive) | 37.8 µM (inactive) | > 100 µM (inactive) | > 100 µM (inactive) | > 100 µM (inactive) | > 100 µM (inactive) | > 100 µM (inactive) | > 100 µM (inactive) | > 100 µM (inactive) | > 100 µM (inactive) | > 100 µM (inactive) | > 100 µM (inactive) | 71.6 µM (inactive) | > 100 µM (inactive) |  |  | 92.7 µM (inactive) |
| Cc1nc2c(=O)n(C)c(=O)nc-2n(-c2ccc(Cl)cc2)c1C | > 100 µM (inactive) | 60.1 µM (inactive) | 85.9 µM (inactive) | > 100 µM (inactive) | > 100 µM (inactive) | > 100 µM (inactive) | > 100 µM (inactive) | 82.6 µM (inactive) | > 100 µM (inactive) | > 100 µM (inactive) | 31 µM (inactive) | > 100 µM (inactive) | > 100 µM (inactive) | > 100 µM (inactive) | 43.9 µM (inactive) | 61.9 |  |

From ChEMBL document CHEMBL1201862, “PubChem BioAssay data set” (2004)
